Read-outs that look alike come from different tables or passages of the source.
Legend:
[1] = test system: MLKL translocation in MDFs; experiment: Fractionation and Blue Native PAGE, MLKL membrane translocation; type: cell-based, mouse; conditions: TSQ up to 6 hours, 1 μM test compound, anti-MLKL blots of Blue-Native PAGE
Experimental: MDFs were seeded in 6 well plates (5×10^5 per well) and allowed to attach overnight. Cells were stimulated with TSQ for up to 6 hours in the presence of 1 μM test compound or DMSO control. Cells were harvested by scraping, washed once in PBS and permeabilized in buffer (20 mM Hepes (pH 7.5), 100 mM KCl, 2.5 mM MgCl2, and 100 mM sucrose) containing 0.025% digitonin (BIOSYNTH, Staad, Switzerland) and supplemented with EDTA-free Complete protease inhibitor cocktail (Roche), 2 μM N-ethyl maleimide, and phosphatase inhibitors (5 mM β-glycerophosphate, 1 mM Na Molybdate, 1 mM Na Pyrophosphate and 100 μM Na Fluoride). Permeabilization was confirmed by trypan blue uptake, and cytosolic and crude membrane fractions were separated by centrifugation at 11,000×g for 5 min. Digitonin was added to the cytoplasmic fraction to a final concentration of 1% and the crude membrane fraction was further solubilized in permeabilization buffer+1% digitonin and incubated on ice for 20 min. Crude membrane suspension was centrifuged at 11,000×g for 5 min and the supernatant loaded alongside cytoplasmic fraction on 4-16% Bis-Tris Native PAGE gel (LifeTechnologies). […] MLKL containing complexes were detected by anti-MLKL (3H1) Western blotting as described above.

[2] = test system: wild type MDFs (mouse dermal fibroblasts); experiment: Cell death assay, TSQ-induced necroptosis in MDFs (PI, flow cytometry); type: cell-based; conditions: 24 h
Text: (§1) Mouse dermal fibroblasts (MDFs) were isolated from three MlkI^−/− mice and three congenic wild type mice and then immortalized by SV40 large T antigen to generate three biologically independent cell lines, as described in Murphy J M, et al. (2013), Immunity 39(3):443-453. Immortalized MDFs were similarly prepared from three Ripk3^−/− mice and congenic wild type mice. MDFs and HEK293T were maintained in Dulbecco's modified Eagle's medium (DMEM) supplemented with 8-10% v/v fetal calf serum (FCS), and 5 μg/mL puromycin for lines stably transduced with inducible expression constructs for MLKL. U937 cells were cultured in RPMI1640 supplemented with 8% v/v FCS. Cell death assays were carried out in 24 well plates, seeding 1×10^5 cells per well. Cells attached over 4 h in the presence of 10 ng/mL doxycycline or 20 ng/mL were then treated with assorted combinations of Necrostatin (50 μM) and Q-VD-OPh (5 μM) 30 min prior to addition of TNF (100 ng/mL) and Smac mimetic (500 nM). After 24 h for MDF cells or 48 h for U937 cells, cells were harvested and PI positive cells (1 μg/mL) quantified using a BD FACSCalibur flow cytometer.

[3] = test system: U937 cells gene-edited to delete MLKL; experiment: Toxicity / TS-induced apoptotic death in U937 cells gene-edited to delete MLKL; type: cell-based, human; conditions: U937 cells lacking MLKL, TS treatment
Text: as §1

[4] = test system: transformed iBMDMs; experiment: Poly(I:C) experiment, RIP1-independent necroptosis; type: cell-based; conditions: poly:IC 50 ug/ml, zVAD 25 uM, 48 hrs
Experimental: Cells were harvested after 48 hrs. Cell death was analysed via propidium iodide staining and flow cytometry.

[5] = test system: wild-type MDFs; experiment: Toxicity of compound in wild-type MDFs; type: cell-based; conditions: triplicate experiments
Text: as §1

[6] = test system: wild type U937 cells; experiment: Cell death assay, TSQ-induced necroptosis in U937 cells (PI, flow cytometry); type: cell-based, human; conditions: for IC50: Homo sapiens
Text: as §1

[7] = molecular target: T1, recombinant RIPK3 (Mus musculus, UniProt Q9QZL0); experiment: In vitro kinase assay; type: biochemical; conditions: for concentrations leading to enhanced RIPK3-mediated phosphorylation of MLKL: mouse MLKL(179-464) as substrate
T1 construct: Recombinant mRIPK3 kinase domain was expressed and purified from Sf21 cells; made in house; host or cells: Sf21 cells
Experimental: In vitro kinase assays were performed as described previously in Murphy J M, et al. (2013), Immunity 39(3):443-453 and Cook W D, et al. (2014) Cell Death Diff. in press, but for the addition of either a DMSO control or up to 12.5 μM of test compound in 0.5% v/v final DMSO.

T1 sequence (Q9QZL0 22-292 limits assumed): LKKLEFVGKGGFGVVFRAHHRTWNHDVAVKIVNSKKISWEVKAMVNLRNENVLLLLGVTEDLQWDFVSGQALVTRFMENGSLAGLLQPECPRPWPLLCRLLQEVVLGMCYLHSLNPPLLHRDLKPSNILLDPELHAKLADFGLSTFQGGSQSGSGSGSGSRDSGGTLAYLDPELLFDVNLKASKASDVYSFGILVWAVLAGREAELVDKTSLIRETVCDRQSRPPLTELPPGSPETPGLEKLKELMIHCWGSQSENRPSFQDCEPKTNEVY

Structure (SMILES): CN(c1ccc(NC(=O)Nc2ccc(OC(F)(F)F)cc2)cc1)c1ccnc(Nc2cccc(S(N)(=O)=O)c2)n1 [Compound 1, 3-((4-(methyl(4-(3-(4-(trifluoromethoxy)phenyl)ureido)phenyl)amino)pyrimidin-2-yl)amino)benzenesulfonamide]
- MLKL translocation to the membrane fraction [1]: retarded translocation to the membrane fraction
- IC50 ([2]; Mus musculus, Fibroblast, read-out: IC50, rescue from TSQ-induced necroptosis): ~0.5 µM
- cells rescued from TSQ-induced necroptosis ([2]; wt MDFs): ~50%
- effect on TS-induced apoptotic death [3]: unaffected
- inhibition of Poly(I:C) and zVAD induced necroptosis [4]: inhibits Poly(I:C) and zVAD induced necroptosis
- concentrations at which toxicity induces death of wild-type MDFs [5]: ≥ 5 µM
- IC50 ([6]; U-937, 48 h, read-out: IC50, rescue from TSQ-induced necroptosis): 0.05 to 0.1 µM
- IC50 ([6]; U-937, read-out: Inhibition of necroptosis (IC50)): 0.05 to 0.1 µM
- cells rescued from TSQ-induced necroptosis ([6]; wt U937 cells, 48 h): ~50%
- inhibition of RIPK3 catalytic activity and of RIPK3-mediated phosphorylation of MLKL ([7]; in vitro kinase assays): neither the catalytic activity of recombinant RIPK3 nor RIPK3-mediated phosphorylation of MLKL were inhibited
- concentrations leading to enhanced RIPK3-mediated phosphorylation of MLKL [7]: ≥ 10 µM
- concentrations leading to enhanced RIPK3-mediated phosphorylation of MLKL ([7]; listed as compound 1): > 5 µM
- impact on recombinant RIPK3 kinase activity ([7]; relative to DMSO control, up to 12.5 μM test compound): no impact

From patent publication US20170114025A1, “METHODS FOR INHIBITING NECROPTOSIS” (Catalyst Therapeutics Pty Ltd, priority 2014, published 2017)
